ChEMBL document CHEMBL1201862, “PubChem BioAssay data set” (2004)
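These data come from cells grown in 96-well plates and exposed to compound for 48 hours at five concentrations. At the GI50, growth is halved.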 The source made the active and inactive calls. No stated cut-off is given here; in the data, active = GI50 up to about 1.1 µM and inactive = higher.

What was measured:
Assay in all cases: inhibition of tumour cell growth, NCI panel, 48 h
OVCAR-3 = test system: OVCAR-3
LOX IMVI = test system: LOX IMVI
KM12 = test system: KM12
UO-31 = test system: UO-31
TK-10 = test system: TK-10
OVCAR-8 = test system: OVCAR-8
SK-MEL-5 = test system: SK-MEL-5
NCI-H23 = test system: NCI-H23
MOLT-4 = test system: MOLT-4
HOP-62 = test system: HOP-62
SF-268 = test system: SF-268
A498 = test system: A498
UACC-257 = test system: UACC-257
BT-549 = test system: BT-549
CAKI-1 = test system: CAKI-1
OVCAR-5 = test system: OVCAR-5
ACHN = test system: ACHN
SN12C = test system: SN12C
RPMI-8226 = test system: RPMI-8226
HCC 2998 = test system: HCC 2998

Measured: GI50

CC1(CC2=C(C(=O)NCCO[Si](C)(C)C(C)(C)C)C3(OCCO3)C2=O)OCCO1
inactive: OVCAR-3 > 100 µM | LOX IMVI 57.5 µM | KM12 > 100 µM | UO-31 > 100 µM | TK-10 > 100 µM | OVCAR-8 > 100 µM | SK-MEL-5 > 100 µM | NCI-H23 63.5 µM | MOLT-4 61.1 µM | HOP-62 > 100 µM | SF-268 > 100 µM | A498 > 100 µM | UACC-257 > 100 µM | BT-549 53.2 µM | CAKI-1 > 100 µM | OVCAR-5 > 100 µM | ACHN > 100 µM | SN12C > 100 µM

Cc1ccc(S(=O)(=O)n2c3ccc(Br)cc3c3nc4ccccc4nc32)cc1
inactive: OVCAR-3 > 100 µM | LOX IMVI > 100 µM | KM12 > 100 µM | UO-31 > 100 µM | RPMI-8226 > 100 µM | TK-10 > 100 µM | OVCAR-8 > 100 µM | SK-MEL-5 > 100 µM | NCI-H23 > 100 µM | MOLT-4 > 100 µM | HOP-62 > 100 µM | SF-268 > 100 µM | HCC 2998 > 100 µM | A498 > 100 µM | UACC-257 > 100 µM | CAKI-1 > 100 µM | OVCAR-5 > 100 µM | ACHN > 100 µM | SN12C > 100 µM

NNc1nncc2[nH]nnc12
inactive: OVCAR-3 > 100 µM | KM12 > 100 µM | UO-31 > 100 µM | RPMI-8226 > 100 µM | TK-10 > 100 µM | OVCAR-8 > 100 µM | SK-MEL-5 > 10 µM | NCI-H23 > 100 µM | MOLT-4 > 100 µM | HOP-62 > 100 µM | SF-268 > 100 µM | A498 > 100 µM | UACC-257 > 100 µM | BT-549 > 100 µM | CAKI-1 > 100 µM | OVCAR-5 > 100 µM | ACHN > 100 µM | SN12C > 100 µM

C=CCOc1ccc(C(=N/NC(=O)c2ccccc2)/N=N/c2ccccc2)cc1OC
inactive: OVCAR-3 86.9 µM | LOX IMVI 42.1 µM | KM12 54.2 µM | UO-31 92.9 µM | TK-10 > 100 µM | OVCAR-8 65.3 µM | SK-MEL-5 50.5 µM | NCI-H23 73.8 µM | MOLT-4 42.6 µM | HOP-62 > 100 µM | SF-268 > 100 µM | HCC 2998 37.5 µM | A498 > 100 µM | UACC-257 > 100 µM | BT-549 42.5 µM | CAKI-1 > 100 µM | OVCAR-5 > 100 µM | ACHN > 100 µM | SN12C > 100 µM

NCCCNCCSSCCCCS(=O)O
inactive: OVCAR-3 19.9 µM | LOX IMVI 8.32 µM | KM12 > 10 µM | UO-31 30.6 µM | RPMI-8226 26.1 µM | TK-10 > 100 µM | OVCAR-8 38.6 µM | SK-MEL-5 17.2 µM | NCI-H23 17.7 µM | MOLT-4 5.09 µM | HOP-62 > 100 µM | SF-268 18.1 µM | HCC 2998 > 100 µM | A498 > 100 µM | UACC-257 17.2 µM | CAKI-1 75.5 µM | OVCAR-5 55.1 µM | ACHN 55.2 µM | SN12C 39.6 µM

Cn1ncc2c(c1=O)Nc1ccccc1S2(=O)=O
inactive: OVCAR-3 > 100 µM | LOX IMVI > 100 µM | KM12 > 100 µM | UO-31 > 100 µM | RPMI-8226 53.8 µM | TK-10 > 100 µM | OVCAR-8 > 100 µM | SK-MEL-5 > 100 µM | NCI-H23 > 100 µM | MOLT-4 > 100 µM | HOP-62 > 100 µM | SF-268 > 100 µM | HCC 2998 > 100 µM | A498 > 100 µM | UACC-257 > 100 µM | CAKI-1 > 100 µM | OVCAR-5 > 100 µM | ACHN > 100 µM | SN12C > 100 µM

C=C1C(=O)OC2C1CC(OC(C)=O)/C(C)=C/CCC1(C)OC21 (stereo unspecified)
inactive: OVCAR-3 > 100 µM | LOX IMVI > 100 µM | KM12 > 100 µM | UO-31 > 100 µM | RPMI-8226 > 100 µM | OVCAR-8 > 100 µM | SK-MEL-5 > 100 µM | NCI-H23 > 100 µM | MOLT-4 > 100 µM | SF-268 > 100 µM | HCC 2998 > 100 µM | UACC-257 > 100 µM | BT-549 > 100 µM | CAKI-1 > 100 µM | OVCAR-5 > 100 µM | ACHN > 100 µM | SN12C > 100 µM

C=C(C(=O)OCC)C(=O)OCC
inactive: OVCAR-3 > 100 µM | LOX IMVI > 100 µM | KM12 > 100 µM | UO-31 > 100 µM | RPMI-8226 > 100 µM | TK-10 > 100 µM | OVCAR-8 > 100 µM | SK-MEL-5 > 100 µM | NCI-H23 > 100 µM | MOLT-4 > 100 µM | HOP-62 > 100 µM | SF-268 > 100 µM | HCC 2998 > 100 µM | UACC-257 > 100 µM | BT-549 > 100 µM | CAKI-1 > 100 µM | OVCAR-5 > 100 µM | ACHN > 100 µM | SN12C > 100 µM

O=C(O)c1ccccc1/C=N/N=C1c2ccccc2-c2ccccc21
inactive: OVCAR-3 15.6 µM | LOX IMVI 37.7 µM | KM12 22.2 µM | UO-31 32.7 µM | RPMI-8226 20.2 µM | TK-10 74.8 µM | OVCAR-8 44.9 µM | SK-MEL-5 33.3 µM | NCI-H23 38.5 µM | MOLT-4 22.5 µM | HOP-62 42.6 µM | SF-268 21.3 µM | A498 68.4 µM | UACC-257 85.1 µM | BT-549 71.9 µM | CAKI-1 35.3 µM | OVCAR-5 50.2 µM | ACHN 45.1 µM | SN12C 28.2 µM

C=C(C)[C@@H]1CC[C@]2(C(=O)O)CC[C@]3(C)[C@H](CC[C@@H]4[C@@]5(C)CC[C@H](C(=O)/C=C/c6ccc(O)cc6)C(C)(C)[C@@H]5CC[C@]43C)[C@@H]12
inactive: OVCAR-3 3.39 µM | LOX IMVI 3.54 µM | KM12 3.29 µM | UO-31 5.2 µM | TK-10 7.82 µM | OVCAR-8 4.3 µM | SK-MEL-5 2.55 µM | NCI-H23 4.22 µM | MOLT-4 2.85 µM | HOP-62 8.39 µM | SF-268 8.11 µM | HCC 2998 3.21 µM | A498 5.07 µM | UACC-257 3.58 µM | BT-549 10.4 µM | CAKI-1 2.64 µM | OVCAR-5 11.5 µM | SN12C 3.05 µM

COc1cc2c(cc1OC)C1c3ccccc3CCN1CCC2.[O-][Cl+3]([O-])([O-])O (stereo unspecified)
inactive: OVCAR-3 > 100 µM | LOX IMVI > 100 µM | KM12 > 100 µM | UO-31 48.4 µM | RPMI-8226 63.7 µM | TK-10 > 100 µM | OVCAR-8 > 100 µM | SK-MEL-5 > 100 µM | MOLT-4 > 100 µM | HOP-62 > 100 µM | SF-268 > 100 µM | HCC 2998 > 100 µM | UACC-257 > 100 µM | BT-549 23.6 µM | CAKI-1 > 100 µM | OVCAR-5 > 100 µM | ACHN > 100 µM | SN12C > 100 µM

O=C(/C=C\Nc1ccccc1O)C(F)(F)F
inactive: OVCAR-3 19.5 µM | LOX IMVI 95.3 µM | KM12 > 100 µM | UO-31 27.7 µM | RPMI-8226 15.5 µM | TK-10 > 100 µM | OVCAR-8 90.4 µM | SK-MEL-5 21 µM | NCI-H23 78.3 µM | MOLT-4 31.7 µM | HOP-62 30.6 µM | SF-268 > 100 µM | HCC 2998 > 100 µM | UACC-257 26.1 µM | BT-549 > 100 µM | CAKI-1 68.1 µM | OVCAR-5 > 100 µM | ACHN 67.8 µM | SN12C 54.8 µM

Cc1cc(C2(c3cc(C)c(O)c(C(=O)O)c3)OS(=O)(=O)c3ccccc32)cc(C(=O)O)c1O
inactive: OVCAR-3 > 100 µM | LOX IMVI > 100 µM | KM12 > 100 µM | UO-31 > 100 µM | RPMI-8226 > 100 µM | TK-10 > 100 µM | OVCAR-8 > 100 µM | SK-MEL-5 > 100 µM | HOP-62 > 100 µM | SF-268 > 100 µM | A498 > 100 µM | UACC-257 > 100 µM | BT-549 > 100 µM | CAKI-1 > 100 µM | OVCAR-5 > 100 µM | ACHN > 100 µM | SN12C > 100 µM
active: MOLT-4 0.205 µM

CC(=O)/C=N/CC(=O)O
inactive: OVCAR-3 > 100 µM | LOX IMVI > 100 µM | KM12 > 100 µM | RPMI-8226 > 100 µM | TK-10 > 100 µM | OVCAR-8 > 100 µM | SK-MEL-5 > 100 µM | NCI-H23 > 100 µM | MOLT-4 > 100 µM | HOP-62 > 100 µM | SF-268 > 100 µM | A498 > 100 µM | UACC-257 > 100 µM | BT-549 > 100 µM | CAKI-1 > 100 µM | OVCAR-5 > 100 µM | ACHN > 100 µM | SN12C > 100 µM

O=C1c2ccccc2-c2cc([N+](=O)[O-])c([N+](=O)[O-])cc21
inactive: KM12 1.61 µM | UO-31 1.67 µM | TK-10 1.48 µM | OVCAR-8 1.64 µM | SK-MEL-5 1.87 µM | NCI-H23 1.91 µM | HOP-62 1.58 µM | SF-268 2.18 µM | A498 17.2 µM | UACC-257 1.41 µM | BT-549 1.92 µM | CAKI-1 2.47 µM | OVCAR-5 2.18 µM | ACHN 1.68 µM | SN12C 1.86 µM
active: LOX IMVI 0.861 µM | RPMI-8226 1.04 µM | MOLT-4 0.482 µM
